ChEMBL document CHEMBL1201862, “PubChem BioAssay data set” (2004)
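Following 48 hours of exposure in 96-well plates, responses at five concentrations were used to interpolate endpoints linearly. GI50: concentration for 50% inhibition of growth.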 Activity calls are given as the source filed them. Rule as the data show it: active = GI50 up to about 1.1 µM and inactive = higher.

Assays:
Test in all cases: growth of human tumour cells (NCI), 48 h
[1] = tested on: U-251
[2] = tested on: OVCAR-3
[3] = tested on: KM12
[4] = tested on: NCI-H226
[5] = tested on: SK-MEL-5
[6] = tested on: M14
[7] = tested on: MDA-MB-435
[8] = tested on: MDA-MB-231
[9] = tested on: NCI-H522
[10] = tested on: HOP-92
[11] = tested on: SN12C
[12] = tested on: SR
[13] = tested on: NCI-H460
[14] = tested on: OVCAR-5
[15] = tested on: T47D
[16] = tested on: MCF7
[17] = tested on: NCI-H23
[18] = tested on: EKVX
[19] = tested on: LOX IMVI
[20] = tested on: HL-60

SMILES | GI50 [1] | GI50 [2] | GI50 [3] | GI50 [4] | GI50 [5] | GI50 [6] | GI50 [7] | GI50 [8] | GI50 [9] | GI50 [10] | GI50 [11] | GI50 [12] | GI50 [13] | GI50 [14] | GI50 [15] | GI50 [16] | GI50 [17] | GI50 [18] | GI50 [19] | GI50 [20]
CCCCCCCCC/C=C1/CC(CO)(COC(=O)c2ccccc2)OC1=O (stereo unspecified) | 14 µM (inactive) | 16.7 µM (inactive) | 16.7 µM (inactive) | 10.5 µM (inactive) | 3.78 µM (inactive) | 14 µM (inactive) | 11.1 µM (inactive) | 12.6 µM (inactive) | 13.7 µM (inactive) | 1.61 µM (inactive) | 12.5 µM (inactive) | 17.9 µM (inactive) | 10 µM (inactive) | 12.2 µM (inactive) | 11.5 µM (inactive) | 16.3 µM (inactive) | 15 µM (inactive) | 14.9 µM (inactive) |  | 
O=P(O)(O)CCP(=O)(O)O | > 100 µM (inactive) | > 100 µM (inactive) | > 100 µM (inactive) |  | > 100 µM (inactive) | > 100 µM (inactive) | > 100 µM (inactive) | > 100 µM (inactive) | > 100 µM (inactive) | > 100 µM (inactive) | > 100 µM (inactive) | > 100 µM (inactive) | > 100 µM (inactive) | > 100 µM (inactive) | > 100 µM (inactive) | > 100 µM (inactive) | > 100 µM (inactive) | > 100 µM (inactive) | > 100 µM (inactive) | 61.1 µM (inactive)
O=C1NC2c3c(I)sc(I)c3C(O)C2O1 (stereo unspecified) | > 100 µM (inactive) | > 100 µM (inactive) | > 100 µM (inactive) | > 100 µM (inactive) |  | > 100 µM (inactive) | > 100 µM (inactive) | > 100 µM (inactive) |  | > 100 µM (inactive) | > 100 µM (inactive) | > 100 µM (inactive) | > 100 µM (inactive) | > 100 µM (inactive) | > 100 µM (inactive) | > 100 µM (inactive) | > 100 µM (inactive) | > 100 µM (inactive) | > 100 µM (inactive) | > 100 µM (inactive)
Cc1cc(C)n(CN(Cn2nc(C)cc2C)C2CCCCC2)n1 | 32.1 µM (inactive) | 25.9 µM (inactive) | 21.2 µM (inactive) |  | 31.2 µM (inactive) | 20.3 µM (inactive) | 22.2 µM (inactive) | 26.6 µM (inactive) | 20.7 µM (inactive) | 28.8 µM (inactive) | 27.5 µM (inactive) | 30.1 µM (inactive) | 61.8 µM (inactive) | 22.9 µM (inactive) | 28.2 µM (inactive) | 32.6 µM (inactive) | 24 µM (inactive) | 31.8 µM (inactive) | 0.0652 µM (active) | 
O=S(=O)(c1ccccc1)c1ccc(-c2nc(-c3ccc4c(c3)Sc3ccccc3S4)cs2)cc1 | 27.9 µM (inactive) | > 100 µM (inactive) | > 100 µM (inactive) | 67 µM (inactive) |  | 36.1 µM (inactive) | > 100 µM (inactive) | 20.5 µM (inactive) |  | 20.7 µM (inactive) | > 100 µM (inactive) | 32.9 µM (inactive) | > 100 µM (inactive) | > 100 µM (inactive) | 61.8 µM (inactive) | 61 µM (inactive) | 11.2 µM (inactive) | 39.8 µM (inactive) | > 100 µM (inactive) | > 100 µM (inactive)
